Patent US20250381168A1, “VLA4 INHIBITORS AND USES THEREOF” (Washington University, priority 2022, published 2025)
Entries after “also recorded” stand apart in the source; their conditions may differ. Where two headings read alike, the source gives them in different places.

Assays:
[1] = biological target: integrin a4b7 (Homo sapiens (Human), UniProt P13612+P26010); experiment: a4b7 solid phase receptor assay (SPRA); conditions: recombinant human a4b7 binding to plate-coated human VCAM1 (TABLE 4)
Sequence of integrin a4b7 (P13612 34-970): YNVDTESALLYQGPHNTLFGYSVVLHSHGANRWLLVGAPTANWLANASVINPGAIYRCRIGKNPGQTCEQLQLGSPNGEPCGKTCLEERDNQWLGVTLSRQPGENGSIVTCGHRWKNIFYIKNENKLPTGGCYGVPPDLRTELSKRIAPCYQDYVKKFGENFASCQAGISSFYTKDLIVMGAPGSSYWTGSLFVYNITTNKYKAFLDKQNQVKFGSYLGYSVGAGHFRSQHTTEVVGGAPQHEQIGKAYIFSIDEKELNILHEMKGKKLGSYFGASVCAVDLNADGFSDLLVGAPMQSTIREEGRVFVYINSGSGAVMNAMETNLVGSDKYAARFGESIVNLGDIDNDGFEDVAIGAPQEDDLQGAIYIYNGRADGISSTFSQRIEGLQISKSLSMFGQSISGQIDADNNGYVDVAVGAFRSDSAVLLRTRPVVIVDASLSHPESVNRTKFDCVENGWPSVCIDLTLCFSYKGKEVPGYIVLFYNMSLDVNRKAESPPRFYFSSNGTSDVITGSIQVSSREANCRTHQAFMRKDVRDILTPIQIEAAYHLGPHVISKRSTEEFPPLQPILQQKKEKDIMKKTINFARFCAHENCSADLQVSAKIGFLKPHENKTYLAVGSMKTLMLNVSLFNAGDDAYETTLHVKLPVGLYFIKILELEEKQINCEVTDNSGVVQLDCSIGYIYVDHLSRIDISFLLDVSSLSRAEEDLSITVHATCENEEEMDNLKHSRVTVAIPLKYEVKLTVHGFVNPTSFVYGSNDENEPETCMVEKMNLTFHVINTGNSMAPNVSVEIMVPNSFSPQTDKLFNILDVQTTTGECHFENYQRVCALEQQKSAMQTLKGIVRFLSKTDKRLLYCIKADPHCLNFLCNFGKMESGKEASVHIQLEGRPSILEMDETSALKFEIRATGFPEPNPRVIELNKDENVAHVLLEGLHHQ
Sequence of integrin a4b7 (P26010 20-723): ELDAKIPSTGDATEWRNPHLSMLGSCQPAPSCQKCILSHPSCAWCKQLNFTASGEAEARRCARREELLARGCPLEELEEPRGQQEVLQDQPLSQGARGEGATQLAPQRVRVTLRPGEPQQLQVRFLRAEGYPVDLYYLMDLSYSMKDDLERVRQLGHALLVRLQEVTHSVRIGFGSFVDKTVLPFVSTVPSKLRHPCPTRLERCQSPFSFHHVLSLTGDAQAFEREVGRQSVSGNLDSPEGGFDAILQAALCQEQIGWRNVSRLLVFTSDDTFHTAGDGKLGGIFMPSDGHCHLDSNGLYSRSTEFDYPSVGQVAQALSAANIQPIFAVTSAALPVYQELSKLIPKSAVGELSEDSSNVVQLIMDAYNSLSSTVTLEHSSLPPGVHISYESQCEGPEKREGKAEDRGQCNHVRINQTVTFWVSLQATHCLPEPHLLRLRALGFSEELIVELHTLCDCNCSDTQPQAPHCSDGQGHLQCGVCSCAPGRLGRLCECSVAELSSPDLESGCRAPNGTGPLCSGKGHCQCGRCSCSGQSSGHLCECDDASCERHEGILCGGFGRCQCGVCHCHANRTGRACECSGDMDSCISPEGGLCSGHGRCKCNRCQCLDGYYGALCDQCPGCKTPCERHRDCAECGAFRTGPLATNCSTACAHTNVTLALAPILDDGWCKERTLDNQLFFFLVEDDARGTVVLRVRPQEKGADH
Description: Wells were washed 3 times with TBS+ and blocking buffer (TBS+ with 1% bovine serum albumin), the plate was incubated for 1 hr at 37° C., and then washed 3× with TBS+ buffer. Recombinant human a4b7 (R & D Systems) was diluted to 1 μg/ml in TBS+/0.1% bovine serum albumin. Test compounds were diluted into the integrin solution and added to the washed ligand-coated plate according to a standard template with each sample repeated in triplicate. After incubation for 2 hr at room temperature, the plate was washed 3× with 150 μl of TBS+ buffer. To each well, biotinylated anti-A4 antibody (R & D Systems) at 1 μg/ml in TBS+/0.1% BSA was added and the plate covered and incubated for 1 hr at room temperature. After washing the plate 3× with TBS+ buffer, streptavidin-conjugated horseradish peroxidase (R & D Systems) diluted in TBS+ blocking buffer was added to the wells and the plate incubated for 20 min at room temperature. The plate was washed 3× with TBS+ buffer followed by addition of 50 μl of TMB substrate (Sigma T4444). After incubation for 20 min at room temperature, plates were stopped with TMB stop solution (Sigma S5689) by colorimetric detection at 450 nm wavelength using a Tecan Safire II plate reader.

[2] = system: hematopoietic stem/progenitor cells (HSPCs); experiment: HSPC mobilization into peripheral blood, colony forming unit (CFU) assay; as to HSPC mobilization, result in words: test concentration or dose not given here; as to No. CFU (×10^3)/mL ± SD, 6 hr: test concentration or dose not given here; conditions: mice; for No. CFU (x10^3)/mL ± SD, 2 hr: 2 hr post dose (TABLE 11); for No. CFU (x10^3)/mL ± SD, 4 hr: 4 hr post dose (TABLE 11); for No. CFU (x10^3)/mL ± SD, 6 hr: 6 hr post dose (TABLE 11); for No. CFU (x10^3)/mL ± SD, 24 hr: 24 hr post dose (TABLE 11); for No. CFU (×10^3)/mL ± SD, 1 hr: 1 hr post dose (TABLE 20); for No. CFU (×10^3)/mL ± SD, 8 hr: 8 hr post dose (TABLE 20)
[3] = biological target: VLA-4 (a4b1) (Homo sapiens (Human), UniProt P05556+P13612); experiment: sVCAM flow cytometry cell-based assay (inhibition of soluble VCAM-1 binding to G2 ALL cells);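 also: compounds at 0.1 to 1000 nM preincubated 30 min with G2 ALL cells, then VCAM/Fc added for 30 min, bound VCAM-1 detected by PE secondary antibody, percent binding cells by flow cytometry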
Sequence of VLA-4 (a4b1) (P13612 34-1032): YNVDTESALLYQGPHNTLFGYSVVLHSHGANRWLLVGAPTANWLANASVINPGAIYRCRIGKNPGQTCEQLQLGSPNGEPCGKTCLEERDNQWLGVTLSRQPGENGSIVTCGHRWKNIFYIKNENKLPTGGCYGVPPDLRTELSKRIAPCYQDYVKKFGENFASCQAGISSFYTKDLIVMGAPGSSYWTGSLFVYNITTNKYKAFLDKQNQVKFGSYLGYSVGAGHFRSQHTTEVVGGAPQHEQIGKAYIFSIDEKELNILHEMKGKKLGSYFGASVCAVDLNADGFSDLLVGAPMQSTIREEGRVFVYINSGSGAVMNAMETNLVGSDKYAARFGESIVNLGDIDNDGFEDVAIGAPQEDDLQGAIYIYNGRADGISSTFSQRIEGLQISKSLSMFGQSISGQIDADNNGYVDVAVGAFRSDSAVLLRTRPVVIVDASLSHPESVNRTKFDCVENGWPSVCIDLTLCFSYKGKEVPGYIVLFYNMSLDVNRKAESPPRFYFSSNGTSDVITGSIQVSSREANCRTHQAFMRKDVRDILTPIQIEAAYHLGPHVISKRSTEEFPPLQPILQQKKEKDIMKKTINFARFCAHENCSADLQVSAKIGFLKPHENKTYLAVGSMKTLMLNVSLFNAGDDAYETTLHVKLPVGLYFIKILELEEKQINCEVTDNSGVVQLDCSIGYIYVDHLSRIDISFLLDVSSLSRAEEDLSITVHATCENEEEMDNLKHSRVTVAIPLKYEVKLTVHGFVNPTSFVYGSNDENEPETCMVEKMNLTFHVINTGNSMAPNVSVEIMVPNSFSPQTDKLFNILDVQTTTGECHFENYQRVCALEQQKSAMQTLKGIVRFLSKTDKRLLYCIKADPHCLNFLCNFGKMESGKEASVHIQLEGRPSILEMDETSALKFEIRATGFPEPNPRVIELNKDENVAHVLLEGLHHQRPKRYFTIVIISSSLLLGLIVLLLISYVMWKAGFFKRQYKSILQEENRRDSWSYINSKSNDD
Sequence of VLA-4 (a4b1) (P05556 21-798): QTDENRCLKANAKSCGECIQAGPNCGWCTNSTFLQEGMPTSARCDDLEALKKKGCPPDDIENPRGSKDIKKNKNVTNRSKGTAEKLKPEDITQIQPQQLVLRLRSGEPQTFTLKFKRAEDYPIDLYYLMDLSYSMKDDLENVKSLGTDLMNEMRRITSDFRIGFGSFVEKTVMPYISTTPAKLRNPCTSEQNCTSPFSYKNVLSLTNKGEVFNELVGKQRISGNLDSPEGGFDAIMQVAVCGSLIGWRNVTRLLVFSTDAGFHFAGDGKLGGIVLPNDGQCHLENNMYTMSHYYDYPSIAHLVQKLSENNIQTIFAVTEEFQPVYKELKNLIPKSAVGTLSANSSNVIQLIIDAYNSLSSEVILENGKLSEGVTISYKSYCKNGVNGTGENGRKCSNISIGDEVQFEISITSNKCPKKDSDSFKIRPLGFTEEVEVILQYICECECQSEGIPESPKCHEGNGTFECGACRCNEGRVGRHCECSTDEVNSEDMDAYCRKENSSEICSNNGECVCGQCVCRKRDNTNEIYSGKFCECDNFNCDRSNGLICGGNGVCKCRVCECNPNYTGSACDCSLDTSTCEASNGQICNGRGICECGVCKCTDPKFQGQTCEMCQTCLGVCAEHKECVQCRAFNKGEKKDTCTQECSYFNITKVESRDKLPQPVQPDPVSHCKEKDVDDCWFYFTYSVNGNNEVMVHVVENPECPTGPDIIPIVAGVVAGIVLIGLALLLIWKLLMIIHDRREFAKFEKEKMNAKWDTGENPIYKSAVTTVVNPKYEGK
Description: VLA-4 (a4b1) inhibitor compounds were tested for their ability to inhibit the binding of soluble VCAM-1 to human G2 acute lymphoblastic leukemia (ALL) cells. Briefly, G2 ALL cells are pre-incubated with increasing concentrations (0.1 to 1000 nM) of compounds for 30 minutes. Soluble VCAM/Fc chimera protein (R & D systems) is then added to the mixture and the cells incubated for an additional 30 minutes. Afterwards, cells are washed and VCAM-1 is detected using a PE-conjugated secondary polyclonal antibody. In each experiment, an aliquot of cells are stained with isotype control antibodies to serve as a negative control. The percentage of VCAM-1 binding cells was then determined by flow cytometry.

[4] = inhibition of sVCAM-1 binding to human G2 ALL cells (TABLE 3), read-out: SVCAM-1, IC50
[5] = single dose, peripheral blood, 2 hr post dose (TABLE 9)
[6] = single dose, peripheral blood, 4 hr post dose (TABLE 9)
[7] = single dose, peripheral blood, 6 hr post dose (TABLE 9)
[8] = as listed in TABLE 9, read-out: sVCAM IC50
[9] = as listed in TABLE 11, read-out: sVCAM IC50
[10] = single dose, peripheral blood, 4 hr post dose (TABLE 20)
[11] = as listed in TABLE 20, read-out: sVCAM IC50

For `Cc1ccccc1NC(=O)Nc1ccc(CC(=O)N(C)[C@@H](CC(C)C)C(=O)NCC[C@H](NC(=O)[C@@H]2CCCN2S(=O)(=O)c2cc(Cl)cc(Cl)c2)C(=O)O)cc1` [BIO5192], the IC50 [1] was over 10000 nM.
In the case of `COCCOCCOCCOCCOCCOCCOCCOCCOCCOCCOCCOCCOCCOCCOCCOCCOCCOCCOCCOCCOCCOCCOCCOCCOCCOCCOCCOCCOCCOCCOCCOCCOCCOCCOCCOCCn1cc(COCc2cc(OC)c(-c3ccc(C[C@H](NC(=O)[C@@H]4CCCN4S(=O)(=O)c4cc(Cl)cc(Cl)c4)C(=O)O)cc3)c(OC)c2)nn1` [Example C10, (S)-3-(4′-(((1-(2,5,8,11,14,17,20,23,26,29,32,35,38,41,44,47,50,53,56,59,62,65,68,71,74,77,80,83, 86,89,92,95,98,101,104,107-hexatriacontaoxanonahectan-109-yl)-1H-1,2,3-triazol-4-yl)methoxy)methyl)-2′,6′-dimethoxy-[1,1′-biphenyl]-4-yl)-2-((S)-1-((3,5-dichlorophenyl)sulfonyl)pyrrolidine-2-carboxamido)propanoic Acid], the “HSPC mobilization, result in words” value ([2]; single dose) is reported as “returning to baseline by 4 hours; also recorded: inferior mobilization at 4 hours compared to Example 3”, the “No. CFU (×10^3)/mL ± SD, 0.25 hr” value ([2]; single dose, peripheral blood, 0.25 hr post dose (TABLE 8)) is reported as 3.87 ± 1.33 (×10^3)/mL and the “No. CFU (×10^3)/mL ± SD, 2 hr” value ([2]; single dose, peripheral blood, 2 hr post dose (TABLE 8)) is reported as 3.37 ± 1.12 (×10^3)/mL. The “No. CFU (×10^3)/mL ± SD, 4 hr” value ([2]; single dose, peripheral blood, 4 hr post dose (TABLE 8)) was 0.90 ± 0.52 (×10^3)/mL, the IC50 ([3]; as listed in TABLE 8, read-out: sVCAM IC50) was 0.552 nM and the IC50 [3, 4] was 0.552 nM.
For `COCCOCCOCCOCCOCCOCCOCCOCCOCc1cc(OC)c(-c2ccc(C[C@H](NC(=O)[C@@H]3CCCN3S(=O)(=O)c3cc(Cl)cc(Cl)c3)C(=O)O)cc2)c(OC)c1` [Example C12, (2S)-2-[[(2S)-1-(3,5-dichlorophenyl)sulfonylpyrrolidine-2-carbonyl]amino]-3-[4-[2,6-dimethoxy-4-[2-[2-[2-[2-[2-[2-[2-(2-methoxyethoxy)ethoxy]ethoxy]ethoxy]ethoxy]ethoxy]ethoxy]ethoxymethyl]phenyl]phenyl]propanoic Acid], the “time to which HSPC mobilization is extended after a single dose” value [2] was at most 2 h, the “No. CFU (×10^3)/mL ± SD, 2 hr” value ([2]; alone or in combination with Plerixafor and tGroβ, peripheral blood, 2 hr (TABLE 17)) was 4.02 ± 1.99 (×10^3)/mL and the “No. CFU (×10^3)/mL ± SD, 4 hr” value ([2]; alone or in combination with Plerixafor and tGroβ, peripheral blood, 4 hr (TABLE 17)) was 0.90 ± 0.61 (×10^3)/mL. The “No. CFU (×10^3)/mL ± SD, 6 hr” value ([2]; alone or in combination with Plerixafor and tGroβ, peripheral blood, 6 hr (TABLE 17)) was 0.25 ± 0.08 (×10^3)/mL, the “HSPC mobilization, result in words” value ([2]; single dose) was “returning to baseline by 4 hours and clearly at baseline by 6 hours; also recorded: do not provide the same extended mobilization as the 24 PEG unit analogues” and the “No. CFU (×10^3)/mL ± SD, 2 hr” value [2, 5] was 2.42 ± 1.06 (×10^3)/mL. For the same compound, the “No. CFU (x10^3)/mL ± SD, 2 hr” value ([2]; single dose, peripheral blood) was 0.78 ± 0.17 (x10^3)/mL, the “No. CFU (×10^3)/mL ± SD, 4 hr” value [2, 6] was 1.19 ± 0.53 (×10^3)/mL and the “No. CFU (x10^3)/mL ± SD, 4 hr” value ([2]; single dose, peripheral blood) was 0.58 ± 0.19 (x10^3)/mL. For the same compound, the “No. CFU (×10^3)/mL ± SD, 6 hr” value [2, 7] was 0.24 ± 0.15 (×10^3)/mL, the “No. CFU (x10^3)/mL ± SD, 6 hr” value ([2]; single dose, peripheral blood) was 0.22 ± 0.10 (x10^3)/mL and the “No. CFU (x10^3)/mL ± SD, 24 hr” value ([2]; single dose, peripheral blood) was 0.14 ± 0.07 (x10^3)/mL. The IC50 [3, 8] was 0.573 nM, the IC50 [3, 9] was 0.573 nM and the IC50 ([3]; as listed in TABLE 17, read-out: sVCAM IC50) was 0.573 nM. For the same compound, the IC50 [3, 4] was 0.573 nM.
For `COCCOCCOCCOCCOCCOCCOCCOCCOCCOCCOCCOCCOCc1cc(OC)c(-c2ccc(C[C@H](NC(=O)[C@@H]3CCCN3S(=O)(=O)c3cc(Cl)cc(Cl)c3)C(=O)O)cc2)c(OC)c1` [Example C13, (S)-2-((S)-1-((3,5-dichlorophenyl)sulfonyl)pyrrolidine-2-carboxamido)-3-(2′,6′-dimethoxy-4′-(2,5,8,11,14,17,20,23,26,29,32,35,38-tridecaoxanonatriacontyl)-[1,1′-biphenyl]-4-yl)propanoic Acid], the “HSPC mobilization, result in words” value ([2]; single dose) was “returning to baseline by 4 hours and clearly at baseline by 6 hours”, the “No. CFU (×10^3)/mL ± SD, 2 hr” value [2, 5] was 2.01 ± 0.75 (×10^3)/mL and the “No. CFU (×10^3)/mL ± SD, 4 hr” value [2, 6] was 0.41 ± 0.19 (×10^3)/mL. The “No. CFU (×10^3)/mL ± SD, 6 hr” value [2, 7] was 0.10 ± 0.04 (×10^3)/mL, the IC50 [3, 8] was 0.673 nM and the IC50 [3, 4] was 0.673 nM.
`COCCOCCOCCOCCOCCOCCOCCOCCOCCOCCOCCOCCOCCOCCOCCOCCOCc1cc(OC)c(-c2ccc(C[C@H](NC(=O)[C@@H]3CCCN3S(=O)(=O)c3cc(Cl)cc(Cl)c3)C(=O)O)cc2)c(OC)c1` [Example C14, (S)-3-(4′-(2,5,8,11,14,17,20,23,26,29,32,35,38,41,44,47,50-heptadecaoxahenpentacontyl)-2′,6′-dimethoxy-[1,1′-biphenyl]-4-yl)-2-((S)-1-((3,5-dichlorophenyl)sulfonyl)pyrrolidine-2-carboxamido)propanoic Acid] was tested, and the “HSPC mobilization, result in words” value ([2]; single dose) was “returning to baseline by 4 hours and clearly at baseline by 6 hours; also recorded: returning to baseline at 4 hours and affords no mobilization effects at 6 hours”, the “No. CFU (×10^3)/mL ± SD, 2 hr” value [2, 5] was 3.17 ± 1.17 (×10^3)/mL and the “No. CFU (×10^3)/mL ± SD, 2 hr” value ([2]; single dose, peripheral blood, 2 hr post dose (TABLE 10)) was 3.40 ± 1.42 (×10^3)/mL. For the same compound, the “No. CFU (×10^3)/mL ± SD, 4 hr” value [2, 6] was 0.50 ± 0.25 (×10^3)/mL, the “No. CFU (×10^3)/mL ± SD, 4 hr” value ([2]; single dose, peripheral blood, 4 hr post dose (TABLE 10)) was 0.82 ± 0.47 (×10^3)/mL and the “No. CFU (×10^3)/mL ± SD, 6 hr” value [2, 7] was 0.08 ± 0.11 (×10^3)/mL. For the same compound, the “No. CFU (×10^3)/mL ± SD, 6 hr” value ([2]; single dose, peripheral blood, 6 hr post dose (TABLE 10)) was 0.25 ± 0.16 (×10^3)/mL, the IC50 [3, 8] was 0.702 nM and the IC50 ([3]; as listed in TABLE 10, read-out: sVCAM IC50) was 0.702 nM. For the same compound, the IC50 [3, 4] was 0.702 nM.
`COCCOCCOCCOCCOCCOCCOCCOCCSCc1cc(OC)c(-c2ccc(C[C@H](NC(=O)[C@@H]3CCCN3S(=O)(=O)c3cc(Cl)cc(Cl)c3)C(=O)O)cc2)c(OC)c1` [Example C16] was tested, and the “No. CFU (x10^3)/mL ± SD, 2 hr” value ([2]; single dose, peripheral blood) was 2.34 ± 0.55 (x10^3)/mL, the “No. CFU (x10^3)/mL ± SD, 4 hr” value ([2]; single dose, peripheral blood) was 1.14 ± 0.86 (x10^3)/mL and the “No. CFU (x10^3)/mL ± SD, 6 hr” value ([2]; single dose, peripheral blood) was 0.38 ± 0.24 (x10^3)/mL. The “No. CFU (x10^3)/mL ± SD, 24 hr” value ([2]; single dose, peripheral blood) was 0.14 ± 0.06 (x10^3)/mL, the IC50 [3, 9] was 0.155 nM and the IC50 [3, 4] was 0.155 nM.
For `Cc1cccc(Cl)c1C(=O)N[C@@H](Cc1ccc(NC(=O)c2c(Cl)cccc2Cl)cc1)C(=O)O` [RO0270608], the “HSPC mobilization, result in words” value ([2]; single dose) was “lack of any appreciable HSC mobilization”, the “No. CFU (×10^3)/mL ± SD, 1 hr” value ([2]; single dose, peripheral blood) was 0.64 ± 0.41 (×10^3)/mL and the “No. CFU (×10^3)/mL ± SD, 4 hr” value [2, 10] was 0.19 ± 0.06 (×10^3)/mL. For the same compound, the “No. CFU (×10^3)/mL ± SD, 8 hr” value ([2]; single dose, peripheral blood) was 0.11 ± 0.05 (×10^3)/mL, the IC50 [3, 11] was 98.7 nM and the IC50 [3, 4] was 98.7 nM.
In the case of `COc1cccc(OC)c1-c1ccc(C[C@H](NC(=O)c2c(Cl)cccc2Cl)C(=O)O)cc1` [TR-14035], the “No. CFU (×10^3)/mL ± SD, 1 hr” value ([2]; single dose, peripheral blood) is reported as 0.54 ± 0.15 (×10^3)/mL, the “No. CFU (×10^3)/mL ± SD, 4 hr” value [2, 10] is reported as 0.18 ± 0.13 (×10^3)/mL and the “No. CFU (×10^3)/mL ± SD, 8 hr” value ([2]; single dose, peripheral blood) is reported as 0.10 ± 0.05 (×10^3)/mL. The IC50 [3, 11] was 247 nM and the IC50 [3, 4] was 247 nM.
